These results are taken from patent US11166959B2, “Isofuranone compounds useful as HPK1 inhibitors” (BRISTOL-MYERS SQUIBB COMPANY, priority 2017, dated 2021).

Structures are written as SMILES. A value given as a limit tells only on which side of the number the result lay.

One assay has as its target T1, IRAK4 (Homo sapiens, UniProt Q9NWZ3).
T1 construct: 1 nM IRAK4 (160-460); purchased SignalChem M24016
T1 sequence (Q9NWZ3 160-460): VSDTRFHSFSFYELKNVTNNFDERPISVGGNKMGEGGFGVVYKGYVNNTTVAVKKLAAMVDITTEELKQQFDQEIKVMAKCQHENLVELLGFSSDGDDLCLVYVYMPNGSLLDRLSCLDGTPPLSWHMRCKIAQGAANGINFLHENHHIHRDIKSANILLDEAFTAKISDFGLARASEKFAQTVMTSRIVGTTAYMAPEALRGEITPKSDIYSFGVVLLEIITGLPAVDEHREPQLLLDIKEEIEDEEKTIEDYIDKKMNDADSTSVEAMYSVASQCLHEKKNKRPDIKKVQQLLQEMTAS
Put plainly: IRAK4 Inhibition Assay (kinase reaction, Caliper capillary electrophoresis). The following applies: 500 μM ATP, 11 concentrations. Format: biochemical. On the procedure:
The reactions were incubated out for three hours and quenched with 1 mM EDTA solution. The reaction incubation time and enzyme concentration were optimized to obtain a maximum peptide substrate conversion of 20-30%. The reaction mixtures were analyzed by capillary electrophoresis on a Caliper LabChip EZ Reader to resolve phosphorylated and unphosphorylated peptide species and determine peptide substrate conversion. […] The compounds were dissolved in DMSO and evaluated at 11 concentrations to determine IC50 values.

In the next assay the target is T2, HPK1 (Homo sapiens, UniProt Q92918).
T2 construct: purchased SignalChem M23-11G
T2 sequence (Q92918 1-346 limits assumed): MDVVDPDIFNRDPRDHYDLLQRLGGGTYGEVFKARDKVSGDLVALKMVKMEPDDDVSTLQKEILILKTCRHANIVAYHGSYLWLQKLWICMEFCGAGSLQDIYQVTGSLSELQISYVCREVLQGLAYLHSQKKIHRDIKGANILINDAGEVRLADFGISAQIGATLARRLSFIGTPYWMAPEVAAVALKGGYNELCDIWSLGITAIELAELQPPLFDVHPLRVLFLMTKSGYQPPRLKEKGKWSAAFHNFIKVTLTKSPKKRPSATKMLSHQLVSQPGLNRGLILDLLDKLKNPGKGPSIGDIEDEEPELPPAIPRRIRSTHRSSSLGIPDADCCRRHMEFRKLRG
Nature of the assay: HPK1 Inhibition Assay (kinase reaction, Caliper capillary electrophoresis). In kind it is biochemical. The following applies: for IC50: 0.625 nM HPK1, 22 μM ATP, 11 concentrations, read-out: HPK1 IC50; for IRAK4/HPK1 Ratio: ratio of the IRAK4 IC50 value to the HPK1 IC50 value. The method, then: The reactions were incubated out for three hours and quenched with 1 mM EDTA solution. The reaction incubation time and enzyme concentration were optimized to obtain a maximum peptide substrate conversion of 20-30%. The reaction mixtures were analyzed by capillary electrophoresis on a Caliper LabChip EZ Reader to resolve phosphorylated and unphosphorylated peptide species and determine peptide substrate conversion. […] The compounds were dissolved in DMSO and evaluated at 11 concentrations to determine the IC50 values.

For `CC1(C)OC(=O)c2ccc(Nc3ncc(C(=O)NNC(=O)c4cccnc4)c(N[C@H](CO)c4ccccc4)n3)cc21` [Example 56, N′-{2-[(3,3-dimethyl-1-oxo-1,3-dihydro-2-benzofuran-5-yl)amino]-4-{[(1S)-2-hydroxy-1-phenylethyl]amino}pyrimidine-5-carbonyl}pyridine-3-carbohydrazide], the IC50 (commonly the concentration that inhibits the measured activity by half) against IRAK4 is 250 to 1000 nM. Further, at HPK1, the IC50 was less than 50 nM and the “IRAK4/HPK1 Ratio” value is “B (B=10 to 50)”.
Turning to `CC1(C)OC(=O)c2ccc(Nc3ncc(-c4nc(N5CCOCC5)no4)c(N[C@H](CO)c4ccccc4)n3)cc21` [Example 31, 5-[(4-{[(1S)-2-hydroxy-1-phenylethyl]amino}-5-[3-(morpholin-4-yl)-1,2,4-oxadiazol-5-yl]pyrimidin-2-yl)amino]-3,3-dimethyl-1,3-dihydro-2-benzofuran-1-one], the IC50 at IRAK4 lay within 50 to 250 nM. In addition, on HPK1, the IC50 is less than 50 nM and the “IRAK4/HPK1 Ratio” value is reported as “C (C=>50)”.
Regarding `CC1(C)OC(=O)c2ccc(Nc3ncc(C(=O)NCCCN4CCOCC4)c(N[C@H](CO)c4ccccc4)n3)cc21` [Example 7, 2-[(3,3-dimethyl-1-oxo-1,3-dihydro-2-benzofuran-5-yl)amino]-4-{[(1S)-2-hydroxy-1-phenylethyl]amino}-N-[3-(morpholin-4-yl)propyl]pyrimidine-5-carboxamide], the IC50 against IRAK4 was 250 to 1000 nM; at HPK1 it was less than 50 nM. In addition, at HPK1, the “IRAK4/HPK1 Ratio” value is “B (B=10 to 50)”.
For `CC1(C)OC(=O)c2ccc(Nc3ncc(-c4nc(C5CCOCC5)no4)c(N[C@H](CO)c4ccccc4)n3)cc21` [Example 33, 5-[(4-{[(1S)-2-hydroxy-1-phenylethyl]amino}-5-[3-(oxan-4-yl)-1,2,4-oxadiazol-5-yl]pyrimidin-2-yl)amino]-3,3-dimethyl-1,3-dihydro-2-benzofuran-1-one], in that order: 50 to 250 nM, less than 50 nM and “C (C=>50)”.
`CC1(C)OC(=O)c2ccc(Nc3ncc(-c4nnc(C5(OC(=O)N6CC(F)(F)C6)CC5)o4)c(N[C@H](CO)c4ccccc4)n3)cc21` [Example 70, 1-(5-{2-[(3,3-dimethyl-1-oxo-1,3-dihydro-2-benzofuran-5-yl)amino]-4-{[(1S)-2-hydroxy-1-phenylethyl]amino}pyrimidin-5-yl}-1,3,4-oxadiazol-2-yl)cyclopropyl 3,3-difluoroazetidine-1-carboxylate] registered an IC50 on IRAK4 of 250 to 1000 nM. For the same compound, on HPK1, the IC50 was in the range of 50 to 250 nM and the “IRAK4/HPK1 Ratio” value is on record as “B (B=10 to 50)”.
For `CC1(C)OC(=O)c2ccc(Nc3ncc(C(=O)NC4CCN(Cc5ccccc5)C4)c(N[C@H](CO)c4ccccc4)n3)cc21` (stereo partly drawn) [Example 22, N-(1-benzylpyrrolidin-3-yl)-2-[(3,3-dimethyl-1-oxo-1,3-dihydro-2-benzofuran-5-yl)amino]-4-{[(1S)-2-hydroxy-1-phenylethyl]amino}pyrimidine-5-carboxamide] the same measures were 250 to 1000 nM, less than 50 nM and “C (C=>50)”.
In turn, `O=C1OCc2cc(Nc3ncc(-c4ncccn4)c(N[C@H](CO)c4ccccc4)n3)ccc21` [Example 1, 5-[(4′-{[(1S)-2-hydroxy-1-phenylethyl]amino}-[2,5′-bipyrimidine]-2′-yl)amino]-1,3-dihydro-2-benzofuran-1-one] gave a 50% inhibitory concentration (IC50) against IRAK4 of 250 to 1000 nM. At HPK1, the half-maximal inhibitory concentration (IC50) was less than 50 nM and the “IRAK4/HPK1 Ratio” value is “B (B=10 to 50)”.
For `CC1(C)OC(=O)c2ccc(Nc3ncc(-c4nc(-c5cccnc5)no4)c(N[C@H](CO)c4ccccc4)n3)cc21` [Example 43, 5-[(4-{[(1S)-2-hydroxy-1-phenylethyl]amino}-5-[3-(pyridin-3-yl)-1,2,4-oxadiazol-5-yl]pyrimidin-2-yl)amino]-3,3-dimethyl-1,3-dihydro-2-benzofuran-1-one] the same measures were 250 to 1000 nM, less than 50 nM and “C (C=>50)”.
For `CC1(C)OC(=O)c2ccc(Nc3ncc(C(=O)NCc4ccccc4)c(N[C@H](CO)c4ccccc4)n3)cc21` [Example 10, N-benzyl-2-[(3,3-dimethyl-1-oxo-1,3-dihydro-2-benzofuran-5-yl)amino]-4-{[(1S)-2-hydroxy-1-phenylethyl]amino}pyrimidine-5-carboxamide] the same measures were 250 to 1000 nM, less than 50 nM and “C (C=>50)”.
For the compound `CC1(C)OC(=O)c2ccc(Nc3ncc(C(=O)NCC4(CN5CCOCC5)CC4)c(N[C@H](CO)c4ccccc4)n3)cc21` [Example 26, 2-[(3,3-dimethyl-1-oxo-1,3-dihydro-2-benzofuran-5-yl)amino]-4-{[(1S)-2-hydroxy-1-phenylethyl]amino}-N-({1-[(morpholin-4-yl)methyl]cyclopropyl}methyl)pyrimidine-5-carboxamide], the 50% inhibitory concentration (IC50) at IRAK4 is 250 to 1000 nM. Further, on HPK1, the IC50 was less than 50 nM and the “IRAK4/HPK1 Ratio” value is “C (C=>50)”.
In the case of `CC1(C)OC(=O)c2ccc(Nc3ncc(-c4nc(CN5CCOCC5)no4)c(N[C@H](CO)c4ccccc4)n3)cc21` [Example 32, 5-[(4-{[(1S)-2-hydroxy-1-phenylethyl]amino}-5-{3-[(morpholin-4-yl)methyl]-1,2,4-oxadiazol-5-yl}pyrimidin-2-yl)amino]-3,3-dimethyl-1,3-dihydro-2-benzofuran-1-one], on IRAK4, the IC50 fell in the range of 250 to 1000 nM. For the same compound, at HPK1, the IC50 is less than 50 nM and the “IRAK4/HPK1 Ratio” value is “C (C=>50)”.
For `CC1(C)OC(=O)c2ccc(Nc3ncc(C4=NCC5(CCOCC5)O4)c(N[C@H](CO)c4ccccc4)n3)cc21` [Example 27, 5-[(5-{1,8-dioxa-3-azaspiro[4.5]dec-2-en-2-yl}-4-{[(1S)-2-hydroxy-1-phenylethyl]amino}pyrimidin-2-yl)amino]-3,3-dimethyl-1,3-dihydro-2-benzofuran-1-one] the same measures were 50 to 250 nM, less than 50 nM and “B (B=10 to 50)”.
Compound `CN(C)CCNC(=O)c1cnc(Nc2ccc3c(c2)C(C)(C)OC3=O)nc1N[C@H](CO)c1ccccc1` [Example 9, 2-[(3,3-dimethyl-1-oxo-1,3-dihydro-2-benzofuran-5-yl)amino]-N-[2-(dimethylamino)ethyl]-4-{[(1S)-2-hydroxy-1-phenylethyl]amino}pyrimidine-5-carboxamide] had an IC50 at IRAK4 of 250 to 1000 nM. On HPK1, the IC50 is less than 50 nM and the “IRAK4/HPK1 Ratio” value is reported as “B (B=10 to 50)”.
At IRAK4, `O=C1OC2(CCCC2)c2nc(Nc3cc(N[C@H](CO)c4ccccc4)c(-c4nc(C5CC5)no4)cn3)ccc21` [Example 87, (S)-2′-((5-(3-cyclopropyl-1,2,4-oxadiazol-5-yl)-4-((2-hydroxy-1-phenylethyl)amino)pyridin-2-yl)amino)-5′H-spiro[cyclopentane-1,7′-furo[3,4-b]pyridin]-5′-one] showed an IC50 of 50 to 250 nM. For the same compound, on HPK1, the half-inhibitory concentration (IC50) is less than 50 nM and the “IRAK4/HPK1 Ratio” value was “B (B=10 to 50)”.
For `CC1(C)OC(=O)c2ccc(Nc3cc(NCc4nccs4)c(-c4nc(C56CCN(CC5)CC6)no4)cn3)nc21` [Example 84, 2-{[5-(3-{1-azabicyclo[2.2.2]octan-4-yl}-1,2,4-oxadiazol-5-yl)-4-{[(1,3-thiazol-2-yl)methyl]amino}pyridin-2-yl]amino}-7,7-dimethyl-5H,7H-furo[3,4-b]pyridin-5-one], in that order: 250 to 1000 nM, less than 50 nM and “C (C=>50)”.
With `CC1(C)OC(=O)c2ccc(Nc3ncc(-c4nnc(C(C)(O)C(F)(F)F)o4)c(N[C@H](CO)c4ccccc4)n3)cc21` (stereo partly drawn) [Example 65, 5-[(4-{[(1S)-2-hydroxy-1-phenylethyl]amino}-5-[5-(1,1,1-trifluoro-2-hydroxypropan-2-yl)-1,3,4-oxadiazol-2-yl]pyrimidin-2-yl)amino]-3,3-dimethyl-1,3-dihydro-2-benzofuran-1-one], the IC50 is 250 to 1000 nM against IRAK4 and less than 50 nM at HPK1. Besides, the “IRAK4/HPK1 Ratio” value at HPK1 is reported as “B (B=10 to 50)”.
For `Cc1noc(-c2cnc(Nc3ccc4c(c3)C(C)(C)OC4=O)nc2Nc2ccc3[nH]ncc3c2)n1` [Example 74, 5-({4-[(1H-indazol-5-yl)amino]-5-(3-methyl-1,2,4-oxadiazol-5-yl)pyrimidin-2-yl}amino)-3,3-dimethyl-1,3-dihydro-2-benzofuran-1-one] the same measures were 250 to 1000 nM, 50 to 250 nM and “B (B=10 to 50)”.
